From ChEMBL document CHEMBL1201861, “Genomics of Drug Sensitity in Cancer screening data, Wellcome Trust Sanger Institute”
Several values for one entry are separate records, joined by “and”; a condition that tells them apart may be missing. Equal entries are not always repeated.

Key:
Assay in all cases: cells
SW1710 = assay type: functional, cell-based, Homo sapiens; conditions: sw1710;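 further: growth inhibition of SW1710 cells, determined with a cell viability assay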
Description: SANGER: Inhibition of human SW1710 cell growth in a cell viability assay.

P30-OHK = assay type: functional, cell-based; conditions: Homo sapiens;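 further: growth inhibition of the P30-OHK cell line, read out with a cell viability assay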
Description: SANGER: Inhibition of human P30-OHK cell growth in a cell viability assay.

NCI-H1650 = assay type: functional, cell-based, Homo sapiens; conditions: nci-h1650;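 further: growth inhibition of human NCI-H1650 cells measured by a cell viability assay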
Description: SANGER: Inhibition of human NCI-H1650 cell growth in a cell viability assay.

NB13 = assay type: functional, cell-based, Homo sapiens;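 further: cell viability readout measuring growth inhibition of human NB13 cells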
Description: SANGER: Inhibition of human NB13 cell growth in a cell viability assay.

CP66-MEL = assay type: functional, cell-based, Homo sapiens;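 further: growth inhibition of CP66-MEL cells determined in a cell viability assay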
Description: SANGER: Inhibition of human CP66-MEL cell growth in a cell viability assay.

MMAC-SF = assay type: functional, cell-based, Homo sapiens; conditions: mmac-sf;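 further: growth inhibition of human MMAC-SF cells, read out with a cell viability assay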
Description: SANGER: Inhibition of human MMAC-SF cell growth in a cell viability assay.

IST-MES1 = assay type: functional, cell-based, Homo sapiens; conditions: ist-mes1;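 further: growth inhibition of IST-MES1 cells, measured with a cell viability assay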
Description: SANGER: Inhibition of human IST-MES1 cell growth in a cell viability assay.

EW-16 = assay type: functional, cell-based, Homo sapiens; conditions: ew-16;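 further: growth inhibition of human EW-16 cells, read out as cell viability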
Description: SANGER: Inhibition of human EW-16 cell growth in a cell viability assay.

NCI-H1563 = assay type: functional, cell-based, Homo sapiens;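 further: growth inhibition of human NCI-H1563 cells, read out with a cell viability assay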
Description: SANGER: Inhibition of human NCI-H1563 cell growth in a cell viability assay.

AU565 = assay type: functional, cell-based, Homo sapiens;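 further: cell viability assay measuring growth inhibition of human AU565 cells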
Description: SANGER: Inhibition of human AU565 cell growth in a cell viability assay.

NCI-H596 = assay type: functional, cell-based, Homo sapiens; conditions: nci-h596;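 further: growth inhibition of NCI-H596 cells, read out with a cell viability assay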
Description: SANGER: Inhibition of human NCI-H596 cell growth in a cell viability assay.

COLO-824 = assay type: functional, cell-based, Homo sapiens; conditions: colo-824
Description: SANGER: Inhibition of human COLO-824 cell growth in a cell viability assay.

NB69 = assay type: functional, cell-based, Homo sapiens;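 further: growth inhibition of NB69 cells, determined by a cell viability assay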
Description: SANGER: Inhibition of human NB69 cell growth in a cell viability assay.

T84 = assay type: functional, cell-based, Homo sapiens; conditions: t84;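 further: growth inhibition measured with a cell viability readout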
Description: SANGER: Inhibition of human T84 cell growth in a cell viability assay.

M14 = assay type: functional, cell-based, Homo sapiens; conditions: m14;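 further: growth inhibition of M14 cells, read out with a cell viability assay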
Description: SANGER: Inhibition of human M14 cell growth in a cell viability assay.

HT-1376 = assay type: functional, cell-based, Homo sapiens; conditions: ht-1376
Description: SANGER: Inhibition of human HT-1376 cell growth in a cell viability assay.

ACHN = assay type: functional, cell-based, Homo sapiens; conditions: achn;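 further: cell viability read-out used to gauge how strongly growth of human ACHN cells is suppressed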
Description: SANGER: Inhibition of human ACHN cell growth in a cell viability assay.

DoTc2-4510 = assay type: functional, cell-based, Homo sapiens; conditions: dotc2-4510
COR-L105 = assay type: functional, cell-based, Homo sapiens; conditions: cor-l105;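 further: cell growth inhibition determined with a viability assay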
Description: SANGER: Inhibition of human COR-L105 cell growth in a cell viability assay.

A 172 = assay type: functional, cell-based, Homo sapiens; conditions: a 172;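 further: growth inhibition of A172 cells, measured with a cell viability readout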
Description: SANGER: Inhibition of human A172 cell growth in a cell viability assay.

SW1990 = assay type: functional, cell-based, Homo sapiens; conditions: sw1990;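 further: cell growth inhibition determined with a viability assay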
Description: SANGER: Inhibition of human SW1990 cell growth in a cell viability assay.

GI-1 = assay type: functional, cell-based, Homo sapiens; conditions: gi-1;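 further: growth inhibition of human GI-1 cells, measured with a cell viability readout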
Description: SANGER: Inhibition of human GI-1 cell growth in a cell viability assay.

Huh-7 = assay type: functional, cell-based, Homo sapiens;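 further: HuH-7 cell growth inhibition, read out with a cell viability assay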
Description: SANGER: Inhibition of human HuH-7 cell growth in a cell viability assay.

ES3 = assay type: functional, cell-based, Homo sapiens;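 further: growth inhibition of ES3 cells, read out with a cell viability assay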
Description: SANGER: Inhibition of human ES3 cell growth in a cell viability assay.

MN-60 = assay type: functional, cell-based; conditions: Homo sapiens;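 further: growth inhibition of the MN-60 cell line, determined with a cell viability assay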
Description: SANGER: Inhibition of human MN-60 cell growth in a cell viability assay.

ASPC1 = assay type: functional, cell-based, Homo sapiens; conditions: aspc1;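 further: growth inhibition of AsPC-1 cells, read out with a cell viability assay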
Description: SANGER: Inhibition of human AsPC-1 cell growth in a cell viability assay.

K5 = assay type: functional, cell-based, Homo sapiens
Description: SANGER: Inhibition of human K5 cell growth in a cell viability assay.

D-247MG = assay type: functional, cell-based, Homo sapiens; conditions: d-247mg
Description: SANGER: Inhibition of human D-247MG cell growth in a cell viability assay.

UMUC3 = assay type: functional, cell-based, Homo sapiens; conditions: umuc3;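 further: growth inhibition of human UM-UC-3 cells, read out with a cell viability assay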
Description: SANGER: Inhibition of human UM-UC-3 cell growth in a cell viability assay.

U-118-MG = assay type: functional, cell-based, Homo sapiens; conditions: u-118-mg
Description: SANGER: Inhibition of human U-118-MG cell growth in a cell viability assay.

G-401 = assay type: functional, cell-based, Homo sapiens; conditions: g-401
Description: SANGER: Inhibition of human G-401 cell growth in a cell viability assay.

DBTRG-05MG = assay type: functional, cell-based, Homo sapiens; conditions: dbtrg-05mg;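 further: cell viability assay measuring growth inhibition of human DBTRG-05MG cells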
Description: SANGER: Inhibition of human DBTRG-05MG cell growth in a cell viability assay.

MDA-MB-175-VII = assay type: functional, cell-based, Homo sapiens; conditions: mda-mb-175-vii
SF-268 = assay type: functional, cell-based, Homo sapiens; conditions: sf-268;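 further: growth inhibition of SF-268 cells determined with a cell viability assay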
Description: SANGER: Inhibition of human SF268 cell growth in a cell viability assay.

PANC-03-27 = assay type: functional, cell-based, Homo sapiens
Description: SANGER: Inhibition of human PANC-03-27 cell growth in a cell viability assay.

NCI-N87 = assay type: functional, cell-based, Homo sapiens; conditions: nci-n87;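 further: growth inhibition of human NCI-N87 cells, read out with a cell viability assay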
Description: SANGER: Inhibition of human NCI-N87 cell growth in a cell viability assay.

OAW-28 = assay type: functional, cell-based, Homo sapiens;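 further: growth inhibition of OAW-28 cells, read out with a cell viability assay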
Description: SANGER: Inhibition of human OAW-28 cell growth in a cell viability assay.

LB771-HNC = assay type: functional, cell-based, Homo sapiens;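 further: growth inhibition of LB771-HNC human cells, read out with a cell viability assay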
Description: SANGER: Inhibition of human LB771-HNC cell growth in a cell viability assay.

LB2518-MEL = assay type: functional, cell-based, Homo sapiens;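 further: growth inhibition of human LB2518-MEL cells, measured with a cell viability assay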
Description: SANGER: Inhibition of human LB2518-MEL cell growth in a cell viability assay.

VA-ES-BJ = assay type: functional, cell-based, Homo sapiens;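 further: growth inhibition of the VA-ES-BJ cell line, read out by a cell viability assay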
Description: SANGER: Inhibition of human VA-ES-BJ cell growth in a cell viability assay.

COR-L88 = assay type: functional, cell-based; conditions: Homo sapiens;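 further: growth inhibition of COR-L88 cells, read out with a cell viability assay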
Description: SANGER: Inhibition of human COR-L88 cell growth in a cell viability assay.

CAL-120 = assay type: functional, cell-based, Homo sapiens; conditions: cal-120;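 further: cell growth inhibition, read out as cell viability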
Description: SANGER: Inhibition of human CAL-120 cell growth in a cell viability assay.

CW-2 = assay type: functional, cell-based, Homo sapiens; conditions: cw-2;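 further: growth inhibition of CW-2 cells, read out by a cell viability assay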
Description: SANGER: Inhibition of human CW-2 cell growth in a cell viability assay.

DMS-114 = assay type: functional, cell-based, Homo sapiens; conditions: dms-114
NCI-H23 = assay type: functional, cell-based, Homo sapiens; conditions: nci-h23;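 further: cell viability assay measuring growth inhibition of NCI-H23 cells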
Description: SANGER: Inhibition of human NCI-H23 cell growth in a cell viability assay.

K562 = assay type: functional, cell-based; conditions: Homo sapiens
Description: SANGER: Inhibition of human K-562 cell growth in a cell viability assay.

HD-MY-Z = assay type: functional, cell-based, Homo sapiens; conditions: hd-my-z;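 further: growth inhibition of HD-MY-Z cells, read out with a cell viability assay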
Description: SANGER: Inhibition of human HD-MY-Z cell growth in a cell viability assay.

SK-N-FI = assay type: functional, cell-based, Homo sapiens; conditions: sk-n-fi;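 further: cell viability assay measuring growth inhibition of human SK-N-FI cells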
Description: SANGER: Inhibition of human SK-N-FI cell growth in a cell viability assay.

GP5d = assay type: functional, cell-based, Homo sapiens;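 further: growth inhibition of human GP5d cells, read out with a cell viability assay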
Description: SANGER: Inhibition of human GP5d cell growth in a cell viability assay.

SMILES: Cc1cc([C@@H](C)Nc2ccccc2C(=O)O)c2nc(N3CCOCC3)cc(=O)n2c1 [AZD-6482]
- IC50 (SW1710): 0.529 µM and 1.99 µM
- IC50 (P30-OHK): 1.07 µM
- IC50 (NCI-H1650): > 5.12 µM
- IC50 (NB13; Homo sapiens, NB13): > 5.12 µM
- IC50 (NB13; nb13): > 5.12 µM
- IC50 (CP66-MEL; Homo sapiens, CP66-MEL): > 5.12 µM
- IC50 (CP66-MEL; cp66-mel): > 5.12 µM
- IC50 (MMAC-SF): > 5.12 µM
- IC50 (IST-MES1): > 5.12 µM
- IC50 (EW-16): > 5.12 µM
- IC50 (NCI-H1563; Homo sapiens, NCI-H1563): > 5.12 µM
- IC50 (NCI-H1563; nci-h1563): > 5.12 µM
- IC50 (AU565; Homo sapiens, AU565): > 5.12 µM
- IC50 (AU565; au565): > 5.12 µM
- IC50 (NCI-H596): > 5.12 µM
- IC50 (COLO-824): > 5.12 µM
- IC50 (NB69; Homo sapiens, NB69): > 5.12 µM
- IC50 (NB69; nb69): > 5.12 µM
- IC50 (T84): > 5.12 µM
- IC50 (M14): > 5.12 µM
- IC50 (HT-1376): > 5.12 µM
- IC50 (ACHN): > 5.12 µM and 2.24 µM
- IC50 (DoTc2-4510): > 5.12 µM
- IC50 (COR-L105): > 5.12 µM
- IC50 (A 172): > 5.12 µM
- IC50 (SW1990): > 5.12 µM
- IC50 (GI-1): 1.32 µM and > 5.12 µM
- IC50 (Huh-7; Homo sapiens, Huh-7): > 5.12 µM
- IC50 (Huh-7; huh-7): > 5.12 µM
- IC50 (ES3; Homo sapiens, ES3): > 5.12 µM
- IC50 (ES3; es3): > 5.12 µM
- IC50 (MN-60): > 5.12 µM
- IC50 (ASPC1): > 5.12 µM
- IC50 (K5; Homo sapiens, K5): > 5.12 µM
- IC50 (K5; k5): > 5.12 µM
- IC50 (D-247MG): > 5.12 µM
- IC50 (UMUC3): > 5.12 µM
- IC50 (U-118-MG): > 5.12 µM and 3.26 µM
- IC50 (G-401): 4.07 µM and > 5.12 µM
- IC50 (DBTRG-05MG): > 5.12 µM
- IC50 (MDA-MB-175-VII): > 5.12 µM
- IC50 (SF-268): > 5.12 µM
- IC50 (PANC-03-27; Homo sapiens, PANC-03-27): > 5.12 µM
- IC50 (PANC-03-27; panc-03-27): 4.4 µM
- IC50 (NCI-N87): > 5.12 µM
- IC50 (OAW-28; Homo sapiens, OAW-28): > 5.12 µM
- IC50 (OAW-28; oaw-28): > 5.12 µM
- IC50 (LB771-HNC; Homo sapiens, LB771-HNC): > 5.12 µM
- IC50 (LB771-HNC; lb771-hnc): > 5.12 µM
- IC50 (LB2518-MEL; Homo sapiens, LB2518-MEL): > 5.12 µM
- IC50 (LB2518-MEL; lb2518-mel): > 5.12 µM
- IC50 (VA-ES-BJ; Homo sapiens, VA-ES-BJ): > 5.12 µM
- IC50 (VA-ES-BJ; va-es-bj): > 5.12 µM
- IC50 (COR-L88): > 5.12 µM
- IC50 (CAL-120): > 5.12 µM
- IC50 (CW-2): > 5.12 µM
- IC50 (DMS-114): > 5.12 µM
- IC50 (NCI-H23): > 5.12 µM
- IC50 (K562): > 5.12 µM
- IC50 (HD-MY-Z): > 5.12 µM
- IC50 (SK-N-FI): > 5.12 µM
- IC50 (GP5d; Homo sapiens, GP5d): > 5.12 µM
- IC50 (GP5d; gp5d): > 5.12 µM
